SMILES strings stand for the structures. The source made the active and inactive calls. No cut-off for these calls is given here.

For series [1], the species on record is Rattus norvegicus. Nature of the series: Cytotoxicity against […] cells assessed as effect on cell number at 1 mM after 48 hrs by MTT assay. The conditions noted are these: mc3t3-e1, 48 h, 1000 µM. Type of series: toxicity, cell-based. On the technique in general: Formazan colour is commonly taken as a measure of viable cells.
The subject of series [2] is MC3T3-E1. Nature of the series: Increase in cell viability of […] cells at 1 mM after 48 hrs by MTT assay. Type of series: functional, cell-based.
Series [3] concerns MC3T3-E1. Nature of the series: Protection against H2O2-induced apoptosis in […] cells assessed as decrease in nuclear condensation pretreated with compound for 48 hrs followed by H2O2 treatment for 24 hrs by DAPI staining based confocal laser scanning microscopy. It is filed as functional, cell-based.
Series [4] is filed under the species Rattus norvegicus. Nature of the series: Cytotoxicity against […] cells assessed as effect on cell number at 2 mM after 48 hrs by MTT assay. Type of series: toxicity, cell-based. The conditions noted are these: mc3t3-e1, 48 h, 2000 µM.
The nature of series [5]: Induction of Wnt/beta-catenin signaling pathway in […] cells assessed as protection against H2O2-induced oxidative stress in presence of Wnt/beta-catenin signaling pathway inhibitor XAV-939. It is filed as cell-based.
Series [6] can be described thus: Induction of Wnt/beta-catenin signaling pathway in […] cells assessed as protection against H2O2-induced oxidative stress by measuring increase in mineralization at 0.5 to 2 mM pretreated with compound for 48 hrs followed by H2O2 treatment for 24 hrs. It is filed as cell-based.
Series [7] in a line: Induction of Wnt/beta-catenin signaling pathway in […] cells assessed as protection against H2O2-induced oxidative stress by measuring decrease in phosphorylated beta-catenin expression at 0.5 to 2 mM pretreated with compound for 48 hrs followed by H2O2 treatment for 24 hrs by Western blot analysis. Type of series: cell-based.
The nature of series [8]: Induction of Wnt/beta-catenin signaling pathway in […] cells assessed as protection against H2O2-induced oxidative stress by measuring increase in onc mRNA expression at 2 mM pretreated with compound for 48 hrs followed by H2O2 treatment for 24 hrs by immunofluorescence staining method. It is filed as cell-based.
For series [9], the system named is MC3T3-E1. The series can be described thus: Protection against H2O2-induced apoptosis in rat MC3T3-E1 cells assessed as inhibition of caspase 3 activation using Ac-DEVD-pNA as substrate pretreated with compound for 48 hrs followed by H2O2 treatment for 24 hrs. It is filed as functional, cell-based.
The nature of series [10]: Induction of Wnt/beta-catenin signaling pathway in […] cells assessed as protection against H2O2-induced oxidative stress by measuring ALP activation at 0.5 to 2 mM pretreated with compound for 48 hrs followed by H2O2 treatment for 24 hrs by Western blot analysis. Type of series: cell-based.
Series [11] has as its system MC3T3-E1. Nature of the series: Protection against H2O2-induced apoptosis in rat MC3T3-E1 cells assessed as decrease in nuclear fragmentation pretreated with compound for 48 hrs followed by H2O2 treatment for 24 hrs by DAPI staining based confocal laser scanning microscopy. It is filed as functional, cell-based.
Series [12] in a line: Induction of Wnt/beta-catenin signaling pathway in rat MC3T3-E1 cells assessed as protection against H2O2-induced oxidative stress by measuring increase in onc mRNA expression at 0.5 to 2 mM pretreated with compound for 48 hrs followed by H2O2 treatment for 24 hrs by immunofluorescence staining method. It is filed as cell-based.
Series [13] in a line: Induction of Wnt/beta-catenin signaling pathway in […] cells assessed as protection against H2O2-induced cell death at 2 mM pretreated with compound for 48 hrs followed by H2O2 treatment for 24 hrs by MTT assay. It is filed as cell-based.
The nature of series [14]: Induction of Wnt/beta-catenin signaling pathway in […] cells assessed as protection against H2O2-induced oxidative stress by measuring decrease in phosphorylated beta-catenin expression at 1.5 mM pretreated with compound for 48 hrs followed by H2O2 treatment for 24 hrs by Western blot analysis. It is filed as cell-based. For orientation: In western blotting, separated proteins are transferred to a membrane and probed.

The nature of series [15]: Induction of Wnt/beta-catenin signaling pathway in […] cells assessed as protection against H2O2-induced oxidative stress by measuring increase in mineralization at 2 mM pretreated with compound for 48 hrs followed by H2O2 treatment for 24 hrs. Type of series: cell-based.
Series [16] is described as follows: Induction of Wnt/beta-catenin signaling pathway in […] cells assessed as protection against H2O2-induced oxidative stress by measuring increase in ALP activity at 2 mM pretreated with compound for 48 hrs followed by H2O2 treatment for 24 hrs. It is filed as cell-based.
For series [17], the system named is Rattus norvegicus. The series can be described thus: Protection against OVX-induced oxidative stress in osteoporosis rat model assessed as […] level in serum at 220 mg/kg/day after 3 months by colorimetric assay. Type of series: functional, organism-based.
The nature of series [18]: Induction of Wnt/beta-catenin signaling pathway in […] cells assessed as protection against H2O2-induced oxidative stress by measuring Runx2 activation at 0.5 to 2 mM pretreated with compound for 48 hrs followed by H2O2 treatment for 24 hrs by Western blot analysis. Type of series: cell-based.
The nature of series [19]: Induction of Wnt/beta-catenin signaling pathway in […] cells assessed as protection against H2O2-induced cell death at 0.5 to 2 mM pretreated with compound for 48 hrs followed by H2O2 treatment for 24 hrs by MTT assay. Type of series: cell-based.
For series [20], the system named is Rattus norvegicus. Nature of the series: Protection against OVX-induced oxidative stress in osteoporosis rat model assessed as decrease in H2O2 level in serum at 220 mg/kg/day after 3 months by colorimetric assay. It is filed as functional, organism-based.
Series [21] has as its system MC3T3-E1. The series can be described thus: Protection against H2O2-induced apoptosis in rat MC3T3-E1 cells assessed as inhibition of caspase 3 mRNA level pretreated with compound for 48 hrs followed by H2O2 treatment for 24 hrs by quantitative real-time PCR method. Type of series: functional, cell-based. For orientation: Real-time PCR tracks product formation cycle by cycle.

Series [22] in a line: Induction of Wnt/beta-catenin signaling pathway in […] cells assessed as protection against H2O2-induced oxidative stress by measuring OPG activation at 0.5 to 2 mM pretreated with compound for 48 hrs followed by H2O2 treatment for 24 hrs by Western blot analysis. It is filed as cell-based.
The test system of series [23] is Rattus norvegicus. The series can be described thus: Protection against OVX-induced osteoporosis in osteoporosis rat model assessed as increase in bone mineral density of femur at 220 mg/kg/day after 3 months by dual X-ray absorptiometry. Type of series: functional, organism-based.
A short description of series [24]: Induction of Wnt/beta-catenin signaling pathway in […] cells assessed as protection against H2O2-induced oxidative stress by measuring increase in ALP activity at 0.5 to 2 mM pretreated with compound for 48 hrs followed by H2O2 treatment for 24 hrs. It is filed as cell-based.

As for `CC(=O)N[C@@H](CS)C(=O)O` [ACETYLCYSTEINE], the Activity result in the series filed under Rattus norvegicus [1] was “Non-Toxic”.
`O.O.O.O.O.O.O.O.O=P([O-])([O-])OCC1(O)O[C@H](COP(=O)([O-])O)[C@@H](O)[C@@H]1O.[Na+].[Na+].[Na+]` (some centres undefined) [FOSFRUCTOSE TRISODIUM]: the outcome (with MC3T3-E1 [2]; in the series on MC3T3-E1 [3]; in series [5]; in [6]; in series [7]; in [8]) was Active. The outcome (with MC3T3-E1 [9]; in series [10]; with MC3T3-E1 [11]; in [12]; in series [13]; in [14]) was Active. The outcome (in series [15]; in series [16]; in the series with Rattus norvegicus [17]; in series [18]; in series [19]; in the series on Rattus norvegicus [20]) was Active. The result (in the series with MC3T3-E1 [21]; in series [22]; in the series with Rattus norvegicus [23]; in series [24]) was Active. In the series listed under Rattus norvegicus [4], the Activity entry was “Non-Toxic”.

These data come from ChEMBL document CHEMBL3856247, “Wnt/β-catenin signaling plays an important role in the protective effects of FDP-Sr against oxidative stress induced apoptosis in MC3T3-E1 cell” (Bioorg Med Chem Lett, 2016).
